Measurements as given in the supplement of paper PMC10307832.

Tests used:
Assay in all cases: relative viability (nuclei count vs DMSO), 5 days (fraction); higher = more cells survive
[1] = compound: NS(=O)(=O)OC[C@@H]1C[C@@H](n2ccc3c(N[C@H]4CCc5ccccc54)ncnc32)C[C@@H]1O [MLN4924] + CS(=O)(=O)N1CCN(Cc2cc3nc(-c4cccc5[nH]ncc45)nc(N4CCOCC4)c3s2)CC1 [Pictilisib] (partner 1 µM)
Outline: (§1)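 Relative viability divides the nuclei count in treated wells by that in vehicle wells. Lung cancer cell lines were seeded in 1536-well plates, dosed by pin tool the next day, and fixed and stained after 5 days in one step with final 0.05% Triton X-100, 1% formaldehyde and 1 ug/ml Hoechst. Dosing was a single drug or a fixed anchor-drug dose plus five library-drug doses (not always all listed) in √10 steps, and values are medians of duplicate plates imaged at 4×.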

[2] = compound: CC[C@H](C)N1C=C(C2=C(C=C(C=C21)C3=CN=C(C=C3)N4CCNCC4)C(=O)NCC5=C(C=C(NC5=O)C)C)C [GSK126] + COc1cccc2cc(-c3nc([C@H]4CC[C@H](C(=O)O)CC4)n4ncnc(N)c34)[nH]c12 [OSI-027] (partner 0.5 µM)
Outline: as §1

[3] = compound: NS(=O)(=O)OC[C@@H]1C[C@@H](n2ccc3c(N[C@H]4CCc5ccccc54)ncnc32)C[C@@H]1O [MLN4924] + O=C(CCCCCCC(=O)Nc1ccccc1)NO [Vorinostat] (partner 1 µM)
Outline: as §1

[4] = compound: C1CC(C1)(C(=O)O)C(=O)O.[NH2-].[NH2-].[Pt+2] [Carboplatin] + Cc1cc(Nc2cc(N3CCN(C)CC3)nc(Sc3ccc(NC(=O)C4CC4)cc3)n2)n[nH]1 [Tozasertib] (partner 0.1 µM)
Outline: as §1

Cell Line	relative viability ([1]; first compound 0.04 µM)	relative viability ([1]; first compound 0.1265 µM)	relative viability ([1]; first compound 0.4 µM)	relative viability ([1]; first compound 1.265 µM)	relative viability ([1]; first compound 4 µM)	relative viability ([2]; first compound 0.08 µM)	relative viability ([2]; first compound 0.253 µM)	relative viability ([2]; first compound 0.8 µM)	relative viability ([2]; first compound 2.53 µM)	relative viability ([2]; first compound 8 µM)	relative viability ([3]; first compound 0.04 µM)	relative viability ([3]; first compound 0.1265 µM)	relative viability ([3]; first compound 0.4 µM)	relative viability ([3]; first compound 1.265 µM)	relative viability ([3]; first compound 4 µM)	relative viability ([4]; first compound 0.08 µM)	relative viability ([4]; first compound 0.253 µM)	relative viability ([4]; first compound 0.8 µM)	relative viability ([4]; first compound 2.53 µM)	relative viability ([4]; first compound 8 µM)
NCI-H1437	0.423	0.409	0.355	0.0891	0.081	0.913	0.854	0.77	0.844	0.828	0.769	0.621	0.385	0.229	0.193	0.386	0.43	0.403	0.4	0.401
NCI-H1650	0.373	0.245	0.182	0.124	0.183	0.834	0.594	0.703	0.684	0.681	0.411	0.352	0.22	0.109	0.176	0.473	0.342	0.427	0.348	0.373
NCI-H1651	0.706	0.514	0.45	0.0787	0.115	0.718	0.755	0.699	0.789	0.697	0.585	0.613	0.638	0.474	0.239	0.89	0.668	0.593	0.508	0.305
NCI-H1666	0.404	0.478	0.247	0.159	0.156	0.886	0.868	0.986	0.789	0.822	0.697	0.623	0.653	0.443	0.444	0.597	0.683	0.599	0.534	0.526
NCI-H1734	0.568	0.743	0.29	0.13	0.154	0.681	0.532	0.665	0.579	0.602	0.792	0.565	0.208	0.132	0.113	0.289	0.295	0.31	0.242	0.26
NCI-H1755	0.221	0.358	0.287	0.134	0.139	0.747	0.725	0.75	0.8	0.689	0.711	0.494	0.466	0.338	0.261	0.57	0.587	0.543	0.535	0.484
NCI-H1793	0.322	0.284	0.273	0.245	0.121	0.288	0.241	0.318	0.248	0.32	0.665	0.662	0.886	0.328	0.205	0.446	0.386	0.301	0.317	0.501
NCI-H1915	0.773	0.81	0.59	0.215	0.201	0.609	0.622	0.704	0.655	0.594	0.52	0.503	0.339	0.149	0.143	0.494	0.455	0.411	0.364	0.331
NCI-H1944	0.405	0.38	0.376	0.182	0.178	0.456	0.423	0.423	0.369	0.449	0.543	0.539	0.613	0.203	0.158	0.245	0.247	0.263	0.24	0.237
NCI-H1975	0.534	0.699	0.314	0.167	0.156	0.867	0.81	0.747	0.749	0.722	0.706	0.704	0.993	0.559	0.248	0.882	0.719	0.634	0.626	0.677
NCI-H1993	0.701	0.681	0.7	0.647	0.643	0.492	0.53	0.557	0.542	0.541	0.645	0.26	0.29	0.309	0.314	0.61	0.643	0.575	0.593	0.635
NCI-H2009	0.456	0.159	0.236	0.0505	0.0867	0.789	0.544	0.64	0.682	0.72	0.584	0.345	0.214	0.106	0.103	0.848	0.694	0.76	0.613	0.45
NCI-H2023	0.315	0.145	0.101	0.0651	0.0705	0.595	0.388	0.447	0.495	0.527	0.548	0.457	0.166	0.0535	0.0695	0.419	0.394	0.402	0.262	0.158
NCI-H2085	0.479	0.719	0.594	0.457	0.42	0.919	0.716	0.839	0.683	0.812	0.769	0.829	0.837	0.635	0.45	0.899	0.875	0.727	0.902	0.788
NCI-H2087	0.972	0.75	0.342	0.118	0.133	0.674	0.466	0.595	0.706	0.786	0.784	0.43	0.135	0.0537	0.125	0.272	0.242	0.23	0.272	0.226
NCI-H2126	0.497	0.457	0.315	0.267	0.264	0.725	0.861	0.721	0.649	0.707	0.814	0.869	0.555	0.237	0.267	0.971	0.915	0.882	0.828	0.732
